Where two headings read alike, the source gives them in different places.
Columns and labels:
[1] = system: cystic fibrosis G542X nonsense mutation; assay: Cell-free nonsense mutation suppression dose-response assay, firefly/renilla; type: biochemical, rabbit; settings: 0-50 μM, FIGS. 4-7
Description: (§1) The plasmids were transcribed in vitro and translated using rabbit reticulocytes (TNT mix) and then tested for the expression levels of the firefly and renilla luciferases.
(§2) WT plasmids expressed both firefly and renilla luciferases while mutant plasmids expressed only the renilla luciferase due to the stop codon found in the inserted sequence. The readthrough assays were conducted for the tested compounds and the controls by adding the compounds to the in vitro transcription/translation reaction mixture. In case the compounds exerted suppression of the premature nonsense/stop codon mutation, the firefly luciferase was expressed and a fold-change in its expression was observed.
Readthrough activity of Cystic Fibrosis (CF) mutation G542X was tested using the compounds presented in Table 1, and the mutation suppression was calculated based on firefly/renilla expression ratio values, and normalized with respect to the expression level of the WT and the control sample (no tested compound).

[2] = system: Rett syndrome R168X, R270X and R294X nonsense mutations; assay: Cell-free nonsense mutation suppression assay, firefly/renilla; type: biochemical, rabbit; settings: 5 μM, FIGS. 8A-C
Description: as §1, §2
FIGS. 8A-C present the results of Rett syndrome R168X (FIG. 8A), R270X (FIG. 8B) and R294X (FIG. 8C) nonsense mutations suppression cell-free assays conducted for six exemplary compounds according to embodiments of the present invention, NB144, NB145, NB146, NB150, NB151 and NB152, at a concentration of 5 μM. As shown therein, when compared with the control (non-treated cell extracts), the wild type cell extracts are unaffected (approx. 100%); however, in all three Rett syndrome mutation models there is a significant impact of the different treatments on the readthrough activity (>>>100%).

[3] = system: prokaryotic ribosome (E. coli S30 extract); assay: Prokaryotic in vitro translation inhibition, coupled transcription/translation, E. coli S30 extract, pBESTluc; type: biochemical; settings: from IC50^Pro and MIC values of Tables 4 and 6
Description: (§3) Prokaryotic in vitro translation inhibition by the different aminoglycosides was quantified in coupled transcription/translation assays by using E. coli S30 extract for circular DNA with the pBESTluc plasmid (Promega), according to the manufacturer's protocol. Translation reactions (25 μL) that contained variable concentrations of the tested aminoglycoside were incubated at 37° C. for 60 minutes, cooled on ice for 5 minutes, and diluted with a dilution reagent (tris-phosphate buffer (25 mM, pH 7.8), DTT (2 mM), 1,2-diaminocyclohexanetetraacetate (2 mM), glycerol (10%), Triton X-100 (1%) and BSA (1 mg mL-1)) into 96-well plates. Eukaryotic in vitro translation inhibition was quantified by use of TNT® T7 Quick Coupled Transcription/Translation System with a luciferase T7 control DNA plasmid (Promega), according to the manufacturer protocol. Translation reactions (25 μL) containing variable concentrations of the tested aminoglycoside were incubated at 30° C. for 60 minutes, cooled on ice for 5 minutes, diluted with the dilution reagent and transferred into 96-well plates. In both prokaryotic and eukaryotic systems the luminescence was measured immediately after the addition of the Luciferase Assay Reagent (50 μL; Promega), and the light emission was recorded with a FLx800 Fluorescence Microplate Reader (Biotek). The half-maximal inhibition concentration (IC50) values were obtained from fitting concentration-response curves to the data of at least two independent experiments by using Grafit 5 software.
(§4) In all biological tests, all AGs were in their sulfate salt forms, and the concentrations refer to the free amine form of each AG. The eukaryotic and prokaryotic half-maximal-inhibition values (IC50^Euk and IC50^Pro) were quantified in coupled transcription/translation assays by using active luciferase detection as previously described. Minimal inhibitory concentration (MIC) values were determined by using the double-microdilution method.

[4] = system: B. subtilis ATCC-6633; assay: Antibacterial activity, MIC by double-microdilution; type: cell-based
Description: (§5) Comparative antibacterial activities were determined in two representative strains of Gram-negative (E. coli R477-100) and Gram-positive (B. subtilis ATCC-6633) bacteria, by measuring the MIC values using the double-microdilution method according to the National Committee for Clinical Laboratory Standards (NCCLS) (NCCLS. National Committee for Clinical Laboratory Standards, Performance standards for antimicrobial susceptibility testing. Fifth information supplement: Approved Standard M100-S5; Villanova, Pa.: NCCLS, 1994.).
as §4

[5] = system: E. coli R477-100; assay: as above; type: cell-based; settings: for MIC: Escherichia coli, R477100, read-out: Antibacterial Activity MIC E. Coli R 477/100
Description: as §5, §4

[6] = system: premature termination codon (PTC); assay: Comparative in-vitro PTC suppression activity assays (Example 6); type: biochemical
[7] = system: nonsense constructs R3X and R245X (USH1), Q70X (HS), G542X (CF); assay: Dual luciferase in vitro readthrough assay, p2Luc plasmids, TNT Reticulocyte Lysate; type: biochemical; settings: for in vitro stop codon suppression (readthrough) activity compared with Compound 1: R3X nonsense mutation construct (USH1), FIG. 10
Excerpt: DNA fragments derived from PCDH15, CFTR, and IDUA cDNAs, including the tested nonsense mutation or the corresponding wild type (wt) codon, and four to six upstream and downstream flanking codons were created by annealing the following pairs of complementary oligonucleotides:
Fragments were inserted in frame into the polylinker of the p2Luc plasmid between either BamHI and SacI (p.R3X and p.R245X) or SalI and SacI (all the rest) restriction sites. For the in vitro readthrough assays, the obtained plasmids, with addition of the tested aminoglycosides were transcribed and translated using the TNT Reticulocyte Lysate Quick Coupled Transcription/Translation System. Luciferase activity was determined after 90 minutes of incubation at 30° C., using the Dual Luciferase Reporter Assay System (Promega™).
Activity was tested using a collection of dual-luciferase reporter plasmids, containing different sequence contests around premature stop codons derived from the PCDH15, CFTR, and IDUA genes that underline USH1, CF, and MPS I-H, respectively. The exemplified nonsense reporters were R3X and R245X for USH1, G542X for CF, and Q70X for MPS I-H.

[8] = system: eukaryotic cytoplasmic ribosome; assay: Eukaryotic in vitro translation inhibition, TNT T7 Quick Coupled Transcription/Translation System, luciferase; type: biochemical; settings: NB156 vs NB74, NB157 vs NB124
Description: as §3, with “Translation reactions (25 μL) containing variable concentrations of the tested aminoglycoside were incubated at 30° C. for 60 minutes, cooled on ice for 5 minutes, diluted with the dilution reagent and transferred into 96-well plates.” left out, “The half-maximal inhibition concentration (IC50) values were obtained from fitting concentration-response curves to the data of at least two independent experiments by using Grafit 5 software.” left out
In all biological tests, all AGs were in their sulfate salt forms, and the concentrations refer to the free amine form of each AG. […] Minimal inhibitory concentration (MIC) values were determined by using the double-microdilution method.

[9] = Bacillus subtilis, ATCC6633, Table 6, read-out: Antibacterial activity MIC B. subtilis ATCC6633
[10] = Bacillus subtilis, ATCC6633, Table 4, read-out: Antibacterial Activity MIC B. Subtilis ATCC6633
[11] = all mutations tested: R3X, R245X, Q70X, G542X, FIGS. 11A-D

For `C[C@@H](O)C1O[C@H](O[C@@H]2C(N)C[C@@H](NC(=O)C(O)CCN)C(O)C2O[C@@H]2O[C@H](CNC(=N)N)C(O)C2O)C(N)C(O)[C@@H]1O` (stereo in doubt) [NB152], the “G542X mutation suppression (readthrough) activity, dose-response” value (“G542X mutation suppression” for short) [1] was “notable dose-dependent readthrough activity” and the “readthrough activity compared within the series” value [2] was “higher activity compared to NB150 and NB151”.
With `C[C@@H](O)C1O[C@H](O[C@@H]2C(N)C[C@@H](NCc3ccccc3)C(O)C2O)C(N)C(O)[C@@H]1O` (stereo in doubt) [NB145] the “G542X mutation suppression” value [1] was “notable dose-dependent readthrough activity”.
In the case of `C[C@H](N)[C@H]1O[C@@H](O[C@@H]2C(O)[C@H](N)CC(N)[C@H]2O[C@H]2OC(CO)=CC(O)[C@@H]2N)C(O)[C@H]1O` (stereo partly shown) [NB159], the “prokaryotic ribosome/protein synthesis inhibition and subsequent antibacterial activity compared with structurally related compound” value [3] is reported as “significantly lower than that of the corresponding paromamine, NB30, and NB118” and the MIC [4, 9] is reported as 192 µg/mL.
For `CC(C)CN[C@@H]1CC(N)[C@@H](O[C@H]2OC([C@@H](C)O)[C@@H](O)C(O)C2N)C(O)C1O` (stereo in doubt) [NB144], the “G542X mutation suppression” value [1] was “notable dose-dependent readthrough activity”.
With gentamicin [reference compound] the MIC ([4]; Table 4, read-out: Antibacterial Activity MIC B. Subtilis ATCC6633) was <0.75 µM and the “Antibacterial Activity MIC E. Coli R 477/100” value ([5]; Table 4) was 6 µM.
For `C[C@@H](O)C1O[C@H](O[C@@H]2C(N)C[C@@H](NC(=N)N)C(O)[C@H]2O)C(N)C(O)[C@@H]1O` (stereo in doubt) [NB150], the “G542X mutation suppression” value [1] was “notable dose-dependent readthrough activity”.
`N[C@H]1[C@@H](O[C@H]2[C@H](O)[C@@H](O)[C@H](N)C[C@@H]2N)OC(CO)=C[C@@H]1O` [NB154, (1S,2R,3R,4S,6R)-4,6-diamino-3-(((2S,3R,4S)-3-amino-4-hydroxy-6-(hydroxymethyl)-3,4-dihydro-2H-pyran-2-yl)oxy)cyclohexane-1,2-diol] was tested, and the “prokaryotic ribosome/protein synthesis inhibition and subsequent antibacterial activity compared with structurally related compound” value [3] was “significantly lower than that of the corresponding paromamine, NB30, and NB118”, the MIC [4, 9] was > 384 µg/mL and the MIC [5] was > 384 µg/mL. The “in-vitro PTC suppression activity compared with structurally related compound” value [6] was “more or less similar activity as that of NB82” and the “readthrough activity, fold higher than paromamine” value ([6]; preliminary comparative in-vitro PTC suppression assays) was ~3.5 fold.
`N[C@H]1[C@@H](O[C@H]2[C@H](O)[C@@H](O)[C@H](N)C[C@@H]2N)O[C@H]([C@H](O)CO)[C@@H](O)[C@@H]1O` [NB153, (2R, 3S, 4R, 5R, 6S)-5-amino-6-(((1R, 2R, 3S, 4R, 6S)-4,6-diamino-2,3-dihydroxycyclohexyl)oxy)-2-((R)-1,2-dihydroxyethyl)tetrahydro-2H-pyran-3,4-diol] was tested, and the MIC [4, 10] was 311 µM, the MIC [5] was > 311 µM and the “in vitro stop codon suppression (readthrough) activity compared with Compound 1” value [7] was “dramatically increases its in vitro readthrough activity”.
With `N[C@H]1[C@@H](O[C@H]2[C@H](O)[C@@H](O)[C@H](N)C[C@@H]2N)O[C@H]([C@@H](O)CO)[C@@H](O)[C@@H]1O` [NB155, (2R, 3S, 4R, 5R, 6S)-5-amino-6-(((1R, 2R, 3S, 4R, 6S)-4,6-diamino-2,3-dihydroxycyclohexyl)oxy)-2-((S)-1,2-dihydroxyethyl)tetrahydro-2H-pyran-3,4-diol] the MIC [4, 10] was > 375 µM, the MIC [5] was > 375 µM and the “in vitro stop codon suppression (readthrough) activity compared with Compound 1” value [7] was “somewhat higher activity of NB155 to that of Compound 1”.
For `C[C@H](N)[C@H]1O[C@@H](OC2C(O)[C@H](N)CC(N)[C@H]2O[C@H]2OC(CO)[C@@H](O)C(O)C2N)C(O)C1O` (stereo partly shown) [NB118, reference compound], the MIC [4, 9] was 83 µg/mL and the MIC [5] was 2660 µg/mL.
With `NC[C@H]1O[C@@H](O[C@@H]2C(O)[C@H](N)CC(N)[C@H]2O[C@H]2OC(CO)=CC(O)[C@@H]2N)C(O)[C@H]1O` (stereo partly shown) [NB158] the “prokaryotic ribosome/protein synthesis inhibition and subsequent antibacterial activity compared with structurally related compound” value [3] was “significantly lower than that of the corresponding paromamine, NB30, and NB118” and the MIC [4, 9] was 192 µg/mL.
Work on `NC[C@H]1O[C@@H](OC2C(O)[C@H](N)CC(N)[C@H]2O[C@H]2OC(CO)[C@@H](O)C(O)C2N)C(O)C1O` (stereo partly shown) [NB30, reference compound] yielded an MIC [4, 9] of 100 µg/mL and an MIC [5] of 790 µg/mL.
In the case of `C[C@H](N)[C@H]1O[C@@H](O[C@@H]2[C@@H](O)[C@H](N)C[C@H](N)[C@H]2O[C@H]2O[C@H]([C@H](O)CO)[C@@H](O)[C@H](O)[C@H]2N)[C@@H](O)[C@H]1O` [NB157, (2R, 3S, 4R, 5R, 6S)-5-amino-6-(((1R, 2R, 3S, 4R, 6S)-4,6-diamino-2-(((2S, 3S, 4R, 5R)-5-((S)-1-aminoethyl)-3,4-dihydroxytetrahydrofuran-2-yl)oxy)-3-hydroxycyclohexyl)oxy)-2-((R)-1,2-dihydroxyethyl)tetrahydro-2H-pyran-3,4-diol], the “fold more specific to the eukaryotic ribosome than structurally related compound” value [8] is reported as 1.25 fold, the “prokaryotic ribosome/protein synthesis inhibition and subsequent antibacterial activity compared with structurally related compound” value [3] is reported as “very similar to those of their structurally related Compounds NB74 and NB124” and the MIC [4, 10] is reported as 64 µM. The MIC [5] was > 257 µM, the “readthrough activity compared with gentamicin” value [7, 11] was “significantly better than that of the clinical drug gentamicin” and the “readthrough activity compared with structurally related compound” value [7, 11] was “better than its structurally related NB124”.
With `CC(O)C1O[C@H](O[C@@H]2C(N)C[C@@H](N)C(O)C2O[C@@H]2O[C@H]([C@H](C)N)C(O)C2O)C(N)C(O)[C@@H]1O` (single isomer, unassigned) [NB124, reference compound] the MIC [4, 10] was 156 µM.
`C[C@@H](O)C1O[C@H](O[C@@H]2C(N)C[C@@H](N)C(O)C2O[C@@H]2O[C@H](CNC(=N)N)C(O)C2O)C(N)C(O)[C@@H]1O` (stereo in doubt) [NB151] was tested, and the “G542X mutation suppression” value [1] was “notable dose-dependent readthrough activity”.

— patent US10899785B2, “Aminoglycoside derivatives and uses thereof in treating genetic disorders” (Eloxx Pharmaceuticals Ltd., priority 2015, dated 2021)
